Results reported in paper PMC4226840, “An open-label study to determine the maximum tolerated dose of the multitargeted tyrosine kinase inhibitor CEP-11981 in patients with advanced cancer” (Investigational New Drugs, 2014).

How the values were obtained:
[1] = Plasma pharmacokinetics in patients, single and multiple doses; type: in vivo, human; conditions: for Mean (SD) Robs (observed accumulation ratio): multiple doses, AUCτ day 15/AUC0–24 day 1; for Mean (SD) Rpred (predicted accumulation ratio): AUC0–∞/AUC0–24 day 1
Method: Pharmacokinetic parameters calculated after multiple doses included AUC0-t, Cmax, Tmax, and t½, and observed accumulation ratio (Robs). […] Pharmacodynamics was assessed by VEGFR-2/KDR inhibitory activity in response to CEP-11981 treatment. […] The venous blood samples for pharmacokinetic-pharmacodynamic analysis were collected on days 1 and 15 of dosing during cycle 1 immediately before dose administration and at 1 h postdose, and on day 43. At each draw, 2 samples were obtained in 6-mL sodium heparinized vacutainers. Plasma was obtained and stored at −70 °C until shipment to the sponsor for analysis.

Tie-2 = test system: Tie-2; parameters: method as in PMID 22148921; conditions: cited from earlier work
[2] = multiple doses (day 15, cycle 1), oral once daily, 41.4 mg/m^2, n = 3
[3] = multiple doses (day 15, cycle 1), oral once daily, 55.0 mg/m^2, n = 4
[4] = multiple doses (day 15, cycle 1), oral once daily, 73.0 mg/m^2, n = 3
[5] = multiple doses (day 15, cycle 1), oral once daily, 126.6 mg/m^2, n = 2
[6] = single dose, oral, 3.0 mg/m^2, n = 3
[7] = single dose, oral, 4.2 mg/m^2, n = 3
[8] = single dose, oral, 5.9 mg/m^2, n = 5
[9] = single dose, oral, 11.8 mg/m^2, n = 3
[10] = single dose, oral, 19.7 mg/m^2, n = 3
[11] = single dose, oral, 29.6 mg/m^2, n = 4
[12] = single dose, oral, 41.4 mg/m^2, n = 3
[13] = single dose, oral, 55.0 mg/m^2, n = 5
[14] = single dose, oral, 73.0 mg/m^2, n = 3
[15] = single dose, oral, 126.6 mg/m^2, n = 2

11-(2-methylpropyl)-12,13-dihydro-2-methyl-8-(pyrimidin-2-ylamino)-4H-indazolo[5,4-a]pyrrolo[3,4-c]carbazol-4-one [CEP-11981]
Mean (SD) t½ [1, 2]: 10.3 (6.33) hr | Median (range) Tmax [1, 2]: 2.1 (1.7–3.1) hr | Mean (SD) AUCτ [1, 3]: 4,313.3 (1,091.33) ng•hr/mL | Mean (SD) Cmax [1, 3]: 320.7 (75.09) ng/mL | Mean (SD) t½ [1, 3]: 12.8 (4.32) hr | Median (range) Tmax [1, 3]: 5.2 (3.0–8.0) hr | Mean (SD) AUCτ [1, 4]: 9,429.0 (3,993.74) ng•hr/mL | Mean (SD) Cmax [1, 4]: 713.0 (30.38) ng/mL | Mean (SD) t½ [1, 4]: 13.9 (9.48) hr | Median (range) Tmax [1, 4]: 3.3 (3.1–3.5) hr | Mean (SD) AUCτ [1, 5]: 23,565.0 (0) ng•hr/mL | Mean (SD) Cmax [1, 5]: 1,481.5 (0) ng/mL | Mean (SD) t½ [1, 5]: 14.7 (0) hr | Median (range) Tmax [1, 5]: 8.0 (8.0–8.0) hr | Mean (SD) Robs (observed accumulation ratio) ([1]; oral once daily, 3.0 mg/m^2, n = 3): 1.3 (0.62) | Mean (SD) Robs (observed accumulation ratio) ([1]; oral once daily, 4.2 mg/m^2, n = 3): 1.8 (0.64) | Mean (SD) Robs (observed accumulation ratio) ([1]; oral once daily, 5.9 mg/m^2, n = 5): 1.5 (0.59) | Mean (SD) Robs (observed accumulation ratio) ([1]; oral once daily, 11.8 mg/m^2, n = 3): 1.5 (0.15) | Mean (SD) Robs (observed accumulation ratio) ([1]; oral once daily, 19.7 mg/m^2, n = 3): 1.2 (0.29) | Mean (SD) Robs (observed accumulation ratio) ([1]; oral once daily, 29.6 mg/m^2, n = 4): 1.1 (1.24) | Mean (SD) Robs (observed accumulation ratio) ([1]; oral once daily, 41.4 mg/m^2, n = 3): 1.3 (0.46) | Mean (SD) Robs (observed accumulation ratio) ([1]; oral once daily, 55.0 mg/m^2, n = 4): 1.9 (0.19) | Mean (SD) Robs (observed accumulation ratio) ([1]; oral once daily, 73.0 mg/m^2, n = 3): 1.9 (0.14) | Mean (SD) AUC0-24 [1, 6]: 127.0 (16.09) ng•hr/mL | Mean (SD) Cmax [1, 6]: 13.7 (6.14) ng/mL | Mean (SD) t½ [1, 6]: 8.0 (2.82) hr | Median (range) Tmax [1, 6]: 6.0 (2.0–6.1) hr | Mean (SD) Rpred (predicted accumulation ratio) [1, 6]: 1.2 (0.15) | Mean (SD) AUC0-24 [1, 7]: 119.3 (14.36) ng•hr/mL | Mean (SD) Cmax [1, 7]: 16.8 (4.88) ng/mL | Mean (SD) t½ [1, 7]: 7.8 (3.69) hr | Median (range) Tmax [1, 7]: 4.0 (1.0–6.0) hr | Mean (SD) Rpred (predicted accumulation ratio) [1, 7]: 1.2 (0.12) | Mean (SD) AUC0-24 [1, 8]: 194.8 (66.56) ng•hr/mL | Mean (SD) Cmax [1, 8]: 26.0 (6.53) ng/mL | Mean (SD) t½ [1, 8]: 5.9 (1.06) hr | Median (range) Tmax [1, 8]: 2.1 (1.5–4.0) hr | Mean (SD) Rpred (predicted accumulation ratio) [1, 8]: 1.1 (0.05) | Mean (SD) AUC0-24 [1, 9]: 516.7 (125.82) ng•hr/mL | Mean (SD) Cmax [1, 9]: 84.9 (23.01) ng/mL | Mean (SD) t½ [1, 9]: 6.0 (3.66) hr | Median (range) Tmax [1, 9]: 1.6 (1.5–3.0) hr | Mean (SD) Rpred (predicted accumulation ratio) [1, 9]: 1.1 (0.12) | Mean (SD) AUC0-24 [1, 10]: 874.0 (357.79) ng•hr/mL | Mean (SD) Cmax [1, 10]: 135.7 (76.46) ng/mL | Mean (SD) t½ [1, 10]: 5.1 (1.33) hr | Median (range) Tmax [1, 10]: 4.0 (1.0–4.3) hr | Mean (SD) Rpred (predicted accumulation ratio) [1, 10]: 1.0 (0.06) | Mean (SD) AUC0-24 [1, 11]: 2,376.3 (2,064.06) ng•hr/mL | Mean (SD) Cmax [1, 11]: 266.9 (181.95) ng/mL | Mean (SD) t½ [1, 11]: 8.5 (5.48) hr | Median (range) Tmax [1, 11]: 2.3 (1.0–3.1) hr | Mean (SD) Rpred (predicted accumulation ratio) [1, 11]: 1.2 (0.22) | Mean (SD) AUC0-24 [1, 12]: 2,820.3 (2,070.39) ng•hr/mL | Mean (SD) Cmax [1, 12]: 351.9 (94.39) ng/mL | Mean (SD) t½ [1, 12]: 8.1 (4.54) hr | Median (range) Tmax [1, 12]: 2.0 (1.0–4.0) hr | Mean (SD) Rpred (predicted accumulation ratio) [1, 12]: 1.2 (0.21) | Mean (SD) AUC0-24 [1, 13]: 2,274.0 (666.44) ng•hr/mL | Mean (SD) Cmax [1, 13]: 251.9 (119.68) ng/mL | Mean (SD) t½ [1, 13]: 9.5 (2.57) hr | Median (range) Tmax [1, 13]: 3.0 (3.0–4.0) hr | Mean (SD) Rpred (predicted accumulation ratio) [1, 13]: 1.2 (0.11) | Mean (SD) AUC0-24 [1, 14]: 3,938.7 (1,965.70) ng•hr/mL | Mean (SD) Cmax [1, 14]: 444.2 (149.44) ng/mL | Mean (SD) t½ [1, 14]: 8.1 (2.19) hr | Median (range) Tmax [1, 14]: 4.0 (3.0–4.1) hr | Mean (SD) Rpred (predicted accumulation ratio) [1, 14]: 1.2 (0.10) | Mean (SD) AUC0-24 [1, 15]: 5,767.0 (0) ng•hr/mL | Mean (SD) Cmax [1, 15]: 751.2 (41.49) ng/mL | Median (range) Tmax [1, 15]: 5.0 (2.0–8.0) hr | IC50 (Tie-2): 22 nM
